Assay results taken from PMC11569172 (Scientific Reports, 2024).

Assays:
STING = STING (Homo sapiens, UniProt Q86WV6); test: SPR; format: binding
cGAS = cGAS (Homo sapiens, UniProt Q8N884); test: SPR; format: binding
Chain of cGAS (Q8N884 whole entry): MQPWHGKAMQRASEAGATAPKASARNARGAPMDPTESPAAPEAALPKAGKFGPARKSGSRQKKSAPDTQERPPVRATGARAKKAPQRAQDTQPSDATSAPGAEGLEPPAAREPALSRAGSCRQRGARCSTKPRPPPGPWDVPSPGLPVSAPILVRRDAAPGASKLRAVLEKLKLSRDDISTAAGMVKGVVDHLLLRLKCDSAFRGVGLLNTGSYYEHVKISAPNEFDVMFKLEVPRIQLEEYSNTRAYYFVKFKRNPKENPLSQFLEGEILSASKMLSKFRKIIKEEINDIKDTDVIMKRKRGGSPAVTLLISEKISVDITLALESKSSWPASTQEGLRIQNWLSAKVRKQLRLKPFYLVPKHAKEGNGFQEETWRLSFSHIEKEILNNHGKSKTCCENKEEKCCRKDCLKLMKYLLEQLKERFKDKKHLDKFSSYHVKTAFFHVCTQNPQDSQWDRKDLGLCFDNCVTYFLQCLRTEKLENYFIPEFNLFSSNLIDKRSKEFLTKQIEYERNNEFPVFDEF

Chain of STING (Q86WV6 whole entry): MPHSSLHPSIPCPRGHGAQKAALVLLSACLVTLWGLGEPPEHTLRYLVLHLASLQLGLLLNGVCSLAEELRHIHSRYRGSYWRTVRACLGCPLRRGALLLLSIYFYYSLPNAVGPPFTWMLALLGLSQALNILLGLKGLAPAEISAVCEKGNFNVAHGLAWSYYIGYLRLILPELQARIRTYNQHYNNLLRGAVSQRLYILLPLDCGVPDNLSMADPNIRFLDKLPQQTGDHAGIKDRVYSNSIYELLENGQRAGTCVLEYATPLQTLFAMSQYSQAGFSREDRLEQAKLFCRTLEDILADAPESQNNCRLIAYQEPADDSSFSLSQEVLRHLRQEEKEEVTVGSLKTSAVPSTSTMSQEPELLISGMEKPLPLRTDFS

## COc1cc(O)c2c(=O)c(O)c(-c3ccc(O)cc3)oc2c1 [RH, rhamnocitrin]
STING
  Kd: 6.75 µM
cGAS
  Kd: 2.6 µM
